System: PC-3 human prostate cancer cells
Experiment: Co-administration of Cryptophycin Payload with CTX or iRGD in subcutaneous PC-3 xenograft model
Format: in vivo, mouse
Conditions: iRGD + Cryptophycin Payload 0.2 mg/kg (data not shown)

With “iRGD: tumor-penetrating peptide iRGD (CRGDK/RGPD/EC) (SEQ ID NO: 202)” the “Effect of co-administration on tumor re-growth versus Cryptophycin Payload alone” value was “re-growth of tumors was not shown to be significantly different”.

— US11826399B2, “Chlorotoxin agents and uses thereof” (Eisai Inc., priority 2017, dated 2023)
